Read-outs that look alike come from different tables or passages of the source. Some results are limits rather than exact numbers.

For assay [1], the system named is methicillin-resistant Staphylococcus aureus (MRSA). Briefly: Determination of MIC values (BHI broth, 96 well microtiter plate). It is filed as cell-based. The conditions noted are these: Staphylococcus aureus, MRSA, BHI broth, read-out: MIC MRSA. The procedure: (§1) Stock solutions of compounds are prepared with a concentration of 10 mg/mL. These solutions are then diluted 1:4 to give a concentration of 2.5 mg/mL. The compounds are then serially diluted 1:2 for 6 iterations. The concentrations made for each compound are 2.5, 1.25, 0.625, 0.3125, 0.156, 0.078, and 0.039 mg/mL. A control sample (no compound) is run along with each compound tested. All dilutions are made in DMSO.
(§2) All wells of a 96 well microtiter plate are filled with 100 μL of BHI (Brain-Heart Infusion) broth. Columns on the plate are labeled 1-12, and rows are labeled A-H. Each column of wells is used to test one series of diluted compounds. Into each well of 100 μL of BHI broth, 1 μL of diluted compound is placed for a 1:100 dilution. This makes the final concentration of each drug series 25, 12.5, 6.25, 3.125, 1.56, 0.78, 0.39, and 0 μg/mL.
(§3) Test Organism: A sterile 15 mL screw cap tube is filled wth 3 mL of BHI broth. Next, 2-3 colonies of test organism are inoculated into the tube. The tube is then incubated at 37° C. in a CO2 (approx. 7%) atmosphere jar. The organisms are allowed to grow to the density of a 0.5 McFarland standard (10^8 cells/mL). The organism is then inoculated into each well of the microtiter plate containing the diluted compounds to be tested for MIC. The inoculum is 1 μL in volume and represents 10^5 to 10^6 cells/mL.
(§4) After inoculation the plates are covered and incubated at 37° C. and approx. 7-10% CO2 atmosphere overnight (about 16 hours). The plates are then observed for growth, the well with the lowest concentration of drug and no observable growth represents the well determining the MIC.

Assay [2] has as its system vancomycin-resistant Enterococcus spp. (VRE). The description is as above. Format: cell-based. The following applies: Enterococcus, VRE, BHI broth, read-out: MIC VREF. The protocol: as §1, §2, §3, §4
[3] abbreviates: 16 h, 37° C., overnight (about 16 hours).

For orientation: MIC means the lowest concentration that inhibits growth of the organism. For `NCc1ccc(CNC(=O)c2cc(-c3c[nH]c4ccc(Cl)cc34)nc3ccccc23)cc1` [Example 16], the MIC in assay [1] (setting [3]) was under 7 µg/mL; in assay [2] (setting [3]), under 25 µg/mL.

For the compound `O=C(O)c1cc(-c2c[nH]c3ccccc23)nc2ccc(I)cc12` [Example 155], the MIC in assay [1] (setting [3]) and in assay [2] (setting [3]) was over 25 µg/mL throughout.

On to `NCc1ccc(CNC(=O)c2ccc3nc(-c4c[nH]c5ccc(Br)cc45)ccc3c2)cc1` [compound 6], for which the MIC in assay [1] (setting [3]) and in assay [2] (setting [3]) was over 25 µg/mL in each case.

For `NC(=O)C1CCCN(C(=O)c2cc(-c3c[nH]c4ccc(Br)cc34)nc3ccccc23)C1` (stereo not drawn) [Example 46], the MIC in assay [1] (setting [3]) and in assay [2] (setting [3]) was under 25 µg/mL each time.

For the compound `O=C(O)c1cc(-c2c[nH]c3ccc(Br)cc23)nc2ccc(C#CCN3CCNCC3)cc12` [Example 207], the MIC was over 25 µg/mL in assay [1] (overnight 37° C.) and under 25 µg/mL in assay [2] (VREF, overnight 37° C.).

Consider `NCc1ccc(CNC(=O)c2cc(-c3c[nH]c4ccc(Br)cc34)nc3ccc(Cl)cc23)cc1` [Example 121], for which the MIC in assay [1] (setting [3]) and in assay [2] (setting [3]) was under 7 µg/mL each time.

Regarding `CC(C)(C)OC(=O)n1cc(-c2cc(C(=O)O)c3cccnc3n2)c2cc(Br)ccc21` [Example 157], the MIC in assay [1] (setting [3]) and in assay [2] (setting [3]) was over 25 µg/mL throughout.

`NC(=O)C(Cc1ccc([N+](=O)[O-])cc1)NC(=O)c1cc(-c2c[nH]c3ccc(Cl)cc23)nc2ccccc12` (stereo not drawn) [Example 148]: the MIC was under 7 µg/mL in assay [1] (setting [3]) and under 25 µg/mL in assay [2] (setting [3]).

`NCc1ccc(CNC(=O)c2cc(-c3ccncc3)nc3ccc(Br)cc23)cc1` [Example 94]: the MIC in assay [1] (setting [3]) and in assay [2] (setting [3]) was over 25 µg/mL throughout.

Take `NCc1cccc(CNC(=O)c2cc(-c3c[nH]c4ccc(Br)cc34)nc3ccccc23)c1` [compound 4]: the values for the MIC in assay [1] (setting [3]) and in assay [2] (setting [3]) were under 25 µg/mL and under 7 µg/mL, respectively.

Consider `Cn1cc(-c2ccc3cc(Cl)ccc3n2)c2cc(OCc3ccccc3)ccc21` [Example 213], for which the MIC in assay [1] (overnight 37° C.) was under 25 µg/mL; in assay [2] (VREF, overnight 37° C.) it was under 25 µg/mL.

Consider `Brc1ccc2[nH]cc(-c3cc(CN4CCNCC4)c4ccccc4n3)c2c1` [Example 28], for which the minimum inhibitory concentration (MIC) in assay [1] (setting [3]) and in assay [2] (setting [3]) was under 25 µg/mL in each case.

Turning to `Cn1cc(-c2ccc3cc(Cl)ccc3n2)c2cc(Br)ccc21` [Example 167], the MIC in assay [1] (setting [3]) and in assay [2] (setting [3]) was over 25 µg/mL throughout.

For the compound `O=C(c1cc(-c2c[nH]c3ccccc23)nc2ccccc12)N1CCNCC1` [compound 8], the MIC in assay [1] (setting [3]) and in assay [2] (setting [3]) was over 25 µg/mL each time.

For `Cc1cc2nc(-c3c[nH]c4ccc(Br)cc34)cc(C(=O)NCc3cccc(CN)c3)c2cc1C` [Example 129], the MIC in assay [1] (setting [3]) and in assay [2] (setting [3]) was under 7 µg/mL throughout.

Turning to `Cc1ccc2[nH]cc(-c3cc(C(=O)NC(Cc4ccc5ccccc5c4)C(N)=O)c4ccccc4n3)c2c1` (stereo not drawn) [Example 146], the MIC in assay [1] (setting [3]) was under 7 µg/mL; in assay [2] (setting [3]), under 25 µg/mL.

`NCc1ccc(CNC(=O)c2cc(C34CC5CC(CC(C5)C3)C4)nc3ccccc23)cc1` [Example 26]: the MIC in assay [1] (setting [3]) and in assay [2] (setting [3]) was under 25 µg/mL throughout.

As to `Cn1ccc(-c2cc(C(=O)NCc3ccc(CN)cc3)c3ccccc3n2)c1` [Example 86], the MIC in assay [1] (setting [3]) and in assay [2] (setting [3]) was over 25 µg/mL each time.

Regarding `O=C(NCc1nc2ccccc2[nH]1)c1cc(-c2c[nH]c3ccc(Br)cc23)nc2ccccc12` [Example 38], the MIC in assay [1] (setting [3]) is under 7 µg/mL; in assay [2] (setting [3]) it was over 25 µg/mL.

With `Cn1cc(-c2cc(C(=O)NCc3ccc(CN)cc3)c3cc(I)ccc3n2)c2cc(Br)ccc21` [Example 269], the MIC in assay [1] (overnight 37° C.) is under 7 µg/mL; in assay [2] (VREF, overnight 37° C.), under 7 µg/mL.

As to `Cn1c(-c2ccccc2)c(-c2ccc3cc(Cl)ccc3n2)c2ccccc21` [Example 220], the MIC in assay [1] (overnight 37° C.) was under 25 µg/mL; in assay [2] (VREF, overnight 37° C.), over 25 µg/mL.

As for `Cc1c(-c2c[nH]c3ccc(Br)cc23)nc2ccc(I)cc2c1C(=O)NCc1ccc(CN)cc1` [Example 152], the MIC was under 7 µg/mL in assay [1] (setting [3]) and under 25 µg/mL in assay [2] (setting [3]).

Turning to `O=C1c2ccccc2C(=O)N1CCCCn1cc(-c2ccc3cc(Cl)ccc3n2)c2ccc(F)cc21` [Example 267], the minimal inhibitory concentration (MIC) in assay [1] (overnight 37° C.) was over 25 µg/mL; in assay [2] (VREF, overnight 37° C.), over 25 µg/mL.

Regarding `O=C(NCc1ccc(CNC(=O)c2cc(-c3c[nH]c4ccc(Br)cc34)nc3ccccc23)cc1)Nc1ccccc1` [Example 40], the MIC in assay [1] (setting [3]) and in assay [2] (setting [3]) was over 25 µg/mL each time.

Turning to `N#Cc1ccc2[nH]cc(-c3ccc4ccccc4n3)c2c1` [Example 190], the MIC in assay [1] (setting [3]) and in assay [2] (setting [3]) was over 25 µg/mL in each case.

On to `NCc1ccc(CNC(=O)c2cc(-c3c[nH]c4cc(F)ccc34)nc3ccccc23)cc1` [Example 80], for which the MIC in assay [1] (setting [3]) and in assay [2] (setting [3]) was under 25 µg/mL in each case.

`COC(=O)c1cc(-c2c[nH]c3ccc(Br)cc23)nc2ccccc12` [Example 24]: the MIC in assay [1] (setting [3]) and in assay [2] (setting [3]) was over 25 µg/mL each time.

As for `NCc1ccc(CNC(=O)c2cc(-c3c[nH]c4ccc(Br)cc34)nc3ccc(C#CCN4CCC(Cc5ccccc5)CC4)cc23)cc1` [Example 75], the MIC in assay [1] (setting [3]) and in assay [2] (setting [3]) was over 25 µg/mL in each case.

`Cc1ccc2nc(-c3c[nH]c4ccc(C#N)cc34)ccc2c1` [Example 433]: the MIC in assay [1] (16 h, 37° C., about 16 hours) was under 7 µg/mL; in assay [2] (16 h, 37° C., about 16 hours) it was over 25 µg/mL.

For the compound `NCc1ccc(CNC(=O)c2cc(-c3csc4ccccc34)nc3ccccc23)cc1` [Example 52], the MIC in assay [1] (setting [3]) and in assay [2] (setting [3]) was under 25 µg/mL throughout.

Consider `N=C(N)NCCCC(NC(=O)c1cc(-c2c[nH]c3ccc(Br)cc23)nc2ccccc12)C(N)=O` (stereo not drawn) [Example 57], for which the MIC in assay [1] (setting [3]) and in assay [2] (setting [3]) was under 25 µg/mL each time.

As to `Cn1cc(-c2ccc3ccccc3n2)c2ccccc21` [Example 176], the MIC in assay [1] (setting [3]) and in assay [2] (setting [3]) was over 25 µg/mL each time.

`NCc1ccc(CNC(=O)c2cc(-c3c[nH]c4ccc(Br)cc34)nc3ncccc23)cc1` [Example 162]: the MIC in assay [1] (setting [3]) and in assay [2] (setting [3]) was over 25 µg/mL in each case.

For the compound `O=C(NCc1ccc(CNC(=O)c2cc(-c3c[nH]c4ccc(Br)cc34)nc3ccccc23)cc1)Nc1cc(C(F)(F)F)cc(C(F)(F)F)c1` [Example 90], the MIC in assay [1] (setting [3]) is under 25 µg/mL; in assay [2] (setting [3]), under 7 µg/mL.

For `N[C@H](Cc1c[nH]cn1)C(=O)NCc1ccc(CNC(=O)c2cc(-c3c[nH]c4ccc(Br)cc34)nc3ccccc23)cc1` [Example 73], the MIC in assay [1] (setting [3]) and in assay [2] (setting [3]) was under 25 µg/mL each time.

`Cn1cc(-c2ccc3cc(Cl)ccc3n2)c2cc(Cl)ccc21` [Example 180]: the MIC in assay [1] (setting [3]) and in assay [2] (setting [3]) was over 25 µg/mL each time.

As for `COc1cc2[nH]cc(-c3ccc4cc(Cl)ccc4n3)c2cc1OC` [Example 206], the MIC in assay [1] (overnight 37° C.) was over 25 µg/mL; in assay [2] (VREF, overnight 37° C.) it was over 25 µg/mL.

As to `NC(=O)C(Cc1ccc([N+](=O)[O-])cc1)NC(=O)c1cc(-c2c[nH]c3ccc(Br)cc23)nc2ccccc12` (stereo not drawn) [Example 149], the values for the MIC in assay [1] (setting [3]) and in assay [2] (setting [3]) were under 7 µg/mL and over 25 µg/mL, respectively.

Consider `O=C(Nc1ccccc1OC(F)(F)F)N1CCN(C(=O)c2cc(-c3c[nH]c4ccc(Br)cc34)nc3ccccc23)CC1` [Example 69], for which the MIC in assay [1] (setting [3]) and in assay [2] (setting [3]) was over 25 µg/mL each time.

With `O=C(c1cc(-c2c[nH]c3ccc(Br)cc23)nc2ccccc12)N1CCNCC1` [compound 11], the MIC in assay [1] (setting [3]) and in assay [2] (setting [3]) was under 25 µg/mL in each case.

For the compound `NC1CCC(NC(=O)c2cc(-c3c[nH]c4ccc(Br)cc34)nc3ccccc23)CC1` (stereo not drawn) [Example 106], the MIC in assay [1] (setting [3]) and in assay [2] (setting [3]) was under 25 µg/mL in each case.

`NCCCNC(=O)c1cc(-c2c[nH]c3ccc(Br)cc23)nc2ccccc12` [compound 3]: the MIC in assay [1] (setting [3]) and in assay [2] (setting [3]) was under 25 µg/mL in each case.

Take `NCCCNC(=O)c1cc(-c2c[nH]c3ccccc23)nc2ccccc12` [compound 1]: the MIC in assay [1] (setting [3]) and in assay [2] (setting [3]) was over 25 µg/mL each time.

On to `Cn1cc(-c2ccc3cc(Cl)ccc3n2)c2ccccc21` [Example 179], for which the MIC in assay [1] (setting [3]) and in assay [2] (setting [3]) was over 25 µg/mL throughout.

Regarding `NCc1ccc(CNC(=O)c2cc3ccccc3c(-c3c[nH]c4ccc(Br)cc34)n2)cc1` [Example 13], the MIC was under 7 µg/mL in assay [1] (setting [3]) and under 25 µg/mL in assay [2] (setting [3]).

For the compound `Cc1[nH]c2ccccc2c1-c1ccc2ccccc2n1` [Example 187], the MIC in assay [1] (setting [3]) and in assay [2] (setting [3]) was over 25 µg/mL throughout.

Consider `NCC1CCC(CNC(=O)c2cc(-c3c[nH]c4ccc(Br)cc34)nc3ccccc23)CC1` (stereo not drawn) [Example 42], for which the MIC in assay [1] (setting [3]) was over 25 µg/mL; in assay [2] (setting [3]) it was under 25 µg/mL.

Regarding `O=C(NCCCCC1CCCNC1)c1cc(-c2c[nH]c3ccc(Br)cc23)nc2ccccc12` (stereo not drawn) [Example 49], the MIC in assay [1] (setting [3]) and in assay [2] (setting [3]) was under 7 µg/mL throughout.

These data come from US6376670B1, “Quinoline-indole antimicrobial agents, uses and compositions related thereto” (Sepracor Inc., priority 1997, dated 2002).
